Laboratory results taken from publication PMC10470491, “Modulation of the functional interfaces between retroviral intasomes and the human nucleosome” (mBio, 2023).
Entries after “also recorded” stand apart in the source; their conditions may differ. *1 amine or outer side, *2 acyl side, *3 side chain or, on linkers, in order; H or OH if unused. Where a SMILES comes first, the peptide text is derived from it. Bridges are numbered along the chain shown (N, C = ends). Roman numbers before positions name the chains, in order. [ ]: non-standard residue; d: D form. Actinocin(9to1) = Cc1c2oc3c(C)ccc(C(=O)[*:1])c3nc-2c(C(=O)[*:2])c(N)c1=O; NMeV = CN[C@H](C(=O)O)C(C)C; Sar = CNCC(=O)O

Experiments:
[1] = tested on: PFV intasome/nucleosome complex; experiment: AlphaLISA PFV intasome/nucleosome interaction assay; type: binding, prototype foamy virus (PFV); human mononucleosome; conditions: for inhibition of intasome/nucleosome association in AS / IC50: increasing drug concentrations; for IC50: intasome/nucleosome AS assay, Fig. 3E; for selection as intasome/nucleosome modulator in the OncoSET screen: 25 µM
Procedure: AlphaLISA is a technology particularly suitable for bimolecular inhibitor screening assays using protein-protein interactions with purified recombinant proteins. The AlphaLISA assay development was performed in 96-well 12 area Alphaplate (reference 6052340, PerkinElmer, Waltham, MA, USA) with a final reaction volume of 40 µL. Cross-titration experiments of biotinylated MN (0–50 nM) against DIG-intasome (0–100 nM) were carried out to establish optimal assay concentrations for the binding assay. Ten microliters of each protein were diluted in the binding buffer 50 mM BisTris-propane pH 7, 100 mM NaCl, 0.1% (v/v) Tween-20, 0.1% (w/v) BSA, and 1 mM dithiothreitol. The plate was incubated at RT for 2 h in rotation. Ten microliters of anti-DIG acceptor beads (PerkinElmer, reference AL113) were then added, and after 1 h of incubation at RT with rotation, 10 µL of streptavidin […] (Perkin Elmer, reference 6760002) was mixed to the wells. This established a final concentration of 20 µg/mL for each bead. The plate was then incubated for 1 h at RT in the dark before the AlphaLISA signal was detected using an EnSpire Multimode Plate Reader (PerkinElmer). Negative control with binding buffer or only with one of the complexes was used to control the assay quality. Data were analyzed with GraphPad Prism 5.01 software. To evaluate tolerance for DMSO, the assay was performed as described above with an addition of 0.15–20% (v/v) of DMSO during the binding step. For the competition experiment, increasing concentrations of untagged intasome were titrated out in the 1-nM DIG-intasome/biotinylated nucleosome interaction assay.
For the AlphaLISA screening assay with the NIH OncoSET library, the binding conditions were optimized for use in 384-well plate (Optiplate, reference 6007290, PerkinElmer) with the same concentrations for complexes and beads in a final reaction volume of 20.5 µL (2.5% DMSO final concentration). The screening was first carried out with 25 µM of each compound pre-incubated for 1 h with 1 nM intasome/nucleosome complexes. Compounds were selected as inducing at least 50% decrease of the AlphaLISA signal control condition, and their inhibitory effect was further tested using dose-response curves. For compounds validation, counter select assay was performed using a short DNA fragment carrying a biotin and a DIG tag on each side. The AlphaLISA signal was monitoring using increasing concentrations of the double-tagged DNA, and the selected compounds were tested in optimized conditions at 10 µM. Any compound that causes decreased signal means that it interferes with AlphaLISA readout, and therefore, it is not relevant to this assay.

PFV intasome [2] = biological target: T1, PFV intasome (Human spumaretrovirus, UniProt P14350); experiment: biochemical; type: biochemical, prototype foamy virus (PFV); set-up: Briefly, PFV IN and its cognate vDNA were mixed, and assembled intasomes were purified by size exclusion chromatography; octamers produced in E. coli; conditions: 30 nM FITC PFV intasome, MN, drugs 0–25 µM
Procedure: Integration assays using purified assembled intasomes were performed as followed: either 100 ng of naked DNA or 100 ng of DNA assembled on 100 ng of histone octamers (24 nM final concentration) was incubated with 30 nM final concentration of purified intasome in 100 mM NaCl, 20 mM BTP pH 7, 12.5 mM MgSO4 (for PFV intasome), or in 20 mM HEPES pH 7, 7.5% DMSO, 8% PEG, 10 mM MgCl2, 20 µM ZnCl2, 100 mM NaCl, 5 mM DTT final concentration (for HIV-1 intasome) in a final volume of 40 µL. The mix was then incubated at 37°C for 15 min and 1 h, respectively. Then, reaction was stopped by the addition of 5.5 µL of a mix containing 5% SDS and 0.25 M EDTA and deproteinized with proteinase K (Promega) for 1 h at 37°C. Nucleic acids were then precipitated with 150 µL of ethanol overnight at −20°C. Samples were then spun at top speed for 1 h at 4°C, and the pellets were dried and then resuspended with DNA loading buffer. Integration products were separated on an 8% native polyacrylamide gel.

PFV intasome [3] = biological target: T1, PFV intasome; experiment: in vitro PFV integration into naked plasmid pBSK-601-Zeo DNA; type: biochemical, prototype foamy virus (PFV); set-up: Briefly, PFV IN and its cognate vDNA were mixed, and assembled intasomes were purified by size exclusion chromatography; made in house; conditions: 10 µM
Procedure: MNs were assembled as previously described for chromatin assembly ([7], [8]). Briefly, 5 µg of biotinylated 147 bp Widom fragment (TEBU-bio) were mixed with an excess of 10 µg of human native recombinant octamers produced in E. coli [purchased from the “Histone Source” Protein Expression and Purification (PEP) facility from the Colorado State University, https://histonesource-colostate.nbsstore.net] in Tris-HCl pH 7.7 and 2 M NaCl in 100 µl final volume. Salt dialysis was then performed to decrease the salt concentration to 0 using slide-A-Lyzer MINI dialysis device, 7 k MWCO (Fisher Scientific). Assembly was checked by electro-mobility shift assay (EMSA) on 8% native PAGE stained with SYBR safe and SDS-PAGE stained with instant blue. Eviction assays of the assembled nucleosome were incubated with increasing concentrations of drugs and then analyzed by EMSA or SDS-PAGE of the supernatant after their capture using streptavidin beads (MyONE T1 invitrogen). Naked DNA substrates (pBSK-601-Zeo vector plasmid containing 601 Widom repetitions or 147 bp 601 DNA fragment) used for comparative integration assays were treated as for nucleosome assembly. […]

mononucleosome (MN) = experiment: histone eviction assay (EMSA / SDS-PAGE); type: biochemical, human; conditions: 10 µM or increasing concentrations
[4] = tested on: HIV-1 intasome (vDNA•IN•LEDGF/p75); experiment: in vitro HIV-1 concerted integration onto mononucleosome; type: biochemical; conditions: MN
[5] = OncoSET screen, 25 µM drug, 1 nM of each partner

Row | SMILES | inhibition of PFV integration into MNs (PFV intasome [2]) | histone eviction / MN dissociation (mononucleosome (MN)) | decrease in the AS signal [1, 5] | IC50 [1] | effect on the intasome/nucleosome AS signal ([1]; retest at 10 µM, MN) | further results
1 | CC/C(=C(\c1ccccc1)c1ccc(OCCN(C)C)cc1)c1ccccc1 [Tamoxifen, tamoxifen] | inefficient in inhibiting integration |  |  |  |  | inhibition of intasome/nucleosome association in AS [1]: only a slight inhibition effect; inhibition of PFV integration into plasmid pBSK-601-Zeo DNA (PFV intasome [3]): remained inefficient
2 | COc1cccc2c1C(=O)c1c(O)c3c(c(O)c1C2=O)C[C@@](O)(C(=O)CO)C[C@@H]3O [Doxorubicinone, doxorubicinone] | inefficient in inhibiting the in vitro integration | could not dissociate the MN |  |  |  | inhibition of in vitro HIV-1 integration [4]: inefficient
3 | CC[C@@]1(O)C(=O)OCc2c1cc1n(c2=O)Cc2cc3c(CN(C)C)c(O)ccc3nc2-1 [topotecan] | did not show any effect |  |  |  |  | 
4 | O=C1c2c(O)ccc(O)c2C(=O)c2c(NCCNCCO)ccc(NCCNCCO)c21 [Mitoxantrone, mitoxantrone] | did not show any inhibitory effect on integration |  | at least 50% | 380 ± 50 nM | strong inhibitory effect | inhibition of PFV integration into plasmid pBSK-601-Zeo DNA (PFV intasome [3]): remained inefficient
5 | N.N.[Cl][Pt][Cl] [cisplatin] | only a slight inhibition of integration into nucleosome |  |  |  |  | 
6 | Cc1c2oc3c(C)ccc(C(=O)N[C@@H]4C(=O)N[C@H](C(C)C)C(=O)N5CCC[C@H]5C(=O)N(C)CC(=O)N(C)[C@@H](C(C)C)C(=O)O[C@@H]4C)c3nc-2c(C(=O)N[C@@H]2C(=O)N[C@H](C(C)C)C(=O)N3CCC[C@H]3C(=O)N(C)CC(=O)N(C)[C@@H](C(C)C)C(=O)O[C@@H]2C)c(N)c1=O [actinomycin D] (I: T[dV]P[Sar][NMeV] / II: T[dV]P[Sar][NMeV]; ester I:1-I:C, II:1-II:C; linker I:N-II:N via Actinocin(9to1)) |  |  |  |  |  | selection as intasome/nucleosome modulator in the OncoSET screen ([1]; OncoSET screen): lack of effect
7 | COc1cccc2c1C(=O)c1c(O)c3c(c(O)c1C2=O)C[C@@](O)(C(=O)CO)C[C@@H]3O[C@H]1C[C@H](N)[C@H](O[C@@H]2CCCCO2)[C@H](C)O1 [Pirarubicin, pirarubicin] | able to inhibit PFV integration into MNs | full shift of the nucleosomal DNA in addition to a strong MN dissociation | at least 50% | 630 ± 20 nM | strong inhibitory effect | 
8 | COc1cccc2c1C(=O)c1c(O)c3c(c(O)c1C2=O)C[C@@](O)(C(=O)CO)C[C@@H]3O[C@H]1C[C@H](N)[C@@H](O)[C@H](C)O1 [epirubicin] |  |  |  |  |  | selection as intasome/nucleosome modulator in the OncoSET screen ([1]; OncoSET screen): not selected as an intasome/nucleosome modulator; also recorded: inefficient in inhibiting the intasome/nucleosome complex
9 | COc1cccc2c1C(=O)c1c(O)c3c(c(O)c1C2=O)C[C@@](O)(C(C)=O)C[C@@H]3O[C@H]1C[C@H](N)[C@H](O)[C@H](C)O1 [Daunorubicin, daunorubicin] | able to inhibit PFV integration into MNs | strong displacement of histones from the MN | at least 50% | 3240 ± 18 nM | strong inhibitory effect | 
10 | C=CC(=O)Nc1cc(Nc2nccc(-c3cn(C)c4ccccc34)n2)c(OC)cc1N(C)CCN(C)C [Osimertinib, osimertinib] |  |  | at least 50% |  |  | inhibition of intasome/nucleosome association in AS [1]: no inhibition in the concentration range used; decrease in the AS signal ([1]; retest at 10 µM, MN): 30–40%
11 | CCCCC(=O)OCC(=O)[C@]1(O)Cc2c(O)c3c(c(O)c2[C@@H](O[C@H]2C[C@H](NC(=O)C(F)(F)F)[C@H](O)[C@H](C)O2)C1)C(=O)c1c(OC)cccc1C3=O [valrubicin] |  |  |  |  |  | selection as intasome/nucleosome modulator in the OncoSET screen ([1]; OncoSET screen): inefficiency
12 | O=C1CCC(N2C(=O)c3ccccc3C2=O)C(=O)N1 (centres unmarked) [thalidomide] | did not show any effect |  |  |  |  | 
13 | CC(=O)[C@]1(O)Cc2c(O)c3c(c(O)c2[C@@H](O[C@H]2C[C@H](N)[C@H](O)[C@H](C)O2)C1)C(=O)c1ccccc1C3=O [Idarubicin, idarubicin] | able to inhibit PFV integration into MNs | strong displacement of histones from the MN | at least 50% | 450 ± 22 nM | strong inhibitory effect | 
